Laboratory results taken from US10752603B2, “Purification of oxydiphthalic anhydrides” (SABIC Global Technologies, B.V., priority 2018, dated 2020).
“Also recorded” adds a separate entry of the source.

Assay: Color stability of ODPA after heat treatment (220 to 225° C., about 8 hours)
Type: physicochemical
Conditions: 220 to 225° C. for about 8 hours, visual observation
Description: The color stability of the ODPA after subjecting the ODPA to heat treatment was also examined. The heat stability testing was performed on various ODPA samples as described in Table 7. The samples were tested using a 10 wt % solution of each sample in DMF and APHA values were recorded using a Macbeth colorimeter Each sample was heat-treated by exposing the sample to a temperature of 220 to 225° C. for about 8 hours. The samples were monitored for color changes during the heat exposure duration. Visual observations are recorded in Table 7, as well as the measured APHA color values.

Question: With O=C1OC(=O)c2cc(Oc3ccc4c(c3)C(=O)OC4=O)ccc21 [Example 74, reference compound] as the molecule, how does the “Qualitative color observations after exposure to heat” value read?
Answer: Its value is “no detectable color change; also recorded: No change observed”.
